Where “and” joins values, the source holds several entries; their conditions need not be identical. Identical values can stand only once. Like-named read-outs stand apart in the source and are kept apart here.
Experiments:
PIM3 [1] = target: T1, PIM3 (Homo sapiens, UniProt Q86V86); test: KINOMEscan competition binding assay (Kd); details: run in duplicate
PIM2 [2] = target: T2, PIM2 (Homo sapiens, UniProt Q9P1W9); test: KINOMEscan competition binding assay (Kd); details: run in duplicate
PIM1 [3] = target: T3, PIM1 (Homo sapiens, UniProt P11309); test: KINOMEscan competition binding assay (Kd)
PIM3 [4] = target: T1, PIM3; test: Biochemical kinase assay, radiolabeled ATP filter binding (Reaction Biology); details: 10 μM ATP, peptide substrate RSRHSSYPAGT
PIM2 [5] = target: T2, PIM2; test: as above; details: 10 μM ATP, peptide substrate […]
PIM1 [6] = target: T3, PIM1; test: as above; details: 10 μM ATP, peptide substrate […]
DU145 = test: Cell Titer-Glo 2.0 luminescent cell viability assay; assay type: cell-based; details: Homo sapiens, DU-145; 72 hour incubation, cell viability (ATP luminescence)
Method: (§1) To obtain growth inhibition data of endodermal cancer cells for PIM kinase inhibitors, Compound 122 was tested against SNU-16, HepG2, MIA PaCa-2, SW480, DU145, HEK-293, PANC-1, and THLE-3 cell lines using CELL TITER-GLO® 2.0 Luminescent Cell Viability Assay (Promega Corporation, Madison, Wis.) at Reaction Biology Corporation (Maven, Pa.). All cell lines were purchased from American Type Culture Collection (ATCC, Manassas, Va.) and maintained in the recommended culture media in the presence of 10% fetal bovind serum, […] of penicillin and 100 µg/mL of streptomycin at 37° C. in a humidified atmosphere of 5% CO2 and 95% air. To initiate the growth inhibition study, Compound 122 was diluted in DMSO solution with 10-dose and 3-fold dilutions in a source plate starting at 50 mM. […] The cells in the cell culture plates were incubated with the compounds at 37° C. for 72 hours in a humidified atmosphere of 5% CO2 and 95% air. After a 72 hour incubation period, 25 μl of Cell Titer Glo 2.0 reagent was added to each well. The contents were mixed on an orbital shaker for 2 minutes and incubated at room temperature for 15 minutes to stabilize the luminescent signal. Luminescence was recorded by Envision 2104 Multilabel Reader (PerkinElmer, Santa Clara, Calif.). The number of viable cells in culture was determined based on quantitation of the ATP present in each culture well. […] Table 5 lists the IC50 values for Compound 122 in the tested cell lines.

HEK-293 = test: as above; assay type: cell-based; details: Homo sapiens, HEK293; 72 hour incubation, cell viability (ATP luminescence)
Method: as §1

THLE-3 = test: as above; assay type: cell-based; details: THLE3; 72 hour incubation, cell viability (ATP luminescence)
Method: as §1

SNU-16 = test: as above; assay type: cell-based; details: Homo sapiens, 72 hour incubation, cell viability (ATP luminescence)
Method: as §1

SW480 = test: as above; assay type: cell-based; details: Homo sapiens, 72 hour incubation, cell viability (ATP luminescence)
Method: as §1

HepG2 = test: as above; assay type: cell-based; details: Homo sapiens, 72 hour incubation, cell viability (ATP luminescence)
Method: as §1

MIA PaCa-2 = test: as above; assay type: cell-based; details: Homo sapiens, 72 hour incubation, cell viability (ATP luminescence)
Method: as §1

PANC-1 = test: as above; assay type: cell-based, human; details: 72 hour incubation, cell viability (ATP luminescence)
Method: To obtain growth inhibition data of endodermal cancer cells for PIM kinase inhibitors, Compound 122 was tested against SNU-16, HepG2, MIA PaCa-2, SW480, DU145, HEK-293, PANC-1, and THLE-3 cell lines using CELL TITER-GLO® 2.0 Luminescent Cell Viability Assay (Promega Corporation, Madison, Wis.) at Reaction Biology Corporation (Maven, Pa.). All cell lines were purchased from American Type Culture Collection (ATCC, Manassas, Va.) and maintained in the recommended culture media in the presence of 10% fetal bovind serum, […] of penicillin and 100 µg/mL of streptomycin at 37° C. in a humidified atmosphere of 5% CO2 and 95% air. To initiate the growth inhibition study, Compound 122 was diluted in DMSO solution with 10-dose and 3-fold dilutions in a source plate starting at 50 mM. […] The cells in the cell culture plates were incubated with the compounds at 37° C. for 72 hours in a humidified atmosphere of 5% CO2 and 95% air. After a 72 hour incubation period, 25 μl of Cell Titer Glo 2.0 reagent was added to each well. The contents were mixed on an orbital shaker for 2 minutes and incubated at room temperature for 15 minutes to stabilize the luminescent signal. Luminescence was recorded by Envision 2104 Multilabel Reader (PerkinElmer, Santa Clara, Calif.). The number of viable cells in culture was determined based on quantitation of the ATP present in each culture well. […]

[7] = competition binding, read-out: Kd PIM3
[8] = competition binding, run in duplicate, read-out: Kd PIM1

SMILES	Kd (PIM3 [1]; [7])	Kd (PIM2 [2])	Kd (PIM1 [3]; [8])	IC50 (PIM3 [4])	IC50 (PIM2 [5])	further results
N#Cc1cccc2c1[nH]c1c3[nH]c4c(C#N)cccc4c3c3c(c21)C(=O)NC3=O [Compound 147]	> 3000 nM	> 3000 nM	> 3 µM			
O=C1NC(=O)c2c1c1c3cccc(O)c3[nH]c1c1[nH]c3c(O)cccc3c21 [Compound 123]	6.4 nM	84 nM	0.13 µM	0.2 nM	55 nM	IC50 (PIM1 [6]): 3.9 nM
O=C1NC(=O)c2c1c1c3ccc(Br)cc3[nH]c1c1[nH]c3cc(Br)ccc3c21 [Compound 138]	> 10000 nM	> 10000 nM	> 10 µM			
O=C1NC(=O)c2c1c1c3ccc(F)cc3[nH]c1c1[nH]c3cc(F)ccc3c21 [Compound 130]	48 nM	150 nM	0.7 µM			
O=C1NC(=O)c2c1c1c3cc(Br)ccc3[nH]c1c1[nH]c3ccc(Br)cc3c21 [Compound 137]	> 10000 nM	> 10000 nM	> 10 µM			
O=C1NC(=O)c2c1c1c3cccc(Br)c3[nH]c1c1[nH]c3c(Br)cccc3c21 [Compound 139]	> 3000 nM	> 3000 nM	> 3 µM			
O=C1NC(=O)c2c1c1c3ccccc3[nH]c1c1c2c2ccccc2n1CCN1CCOCC1 [Compound 3, 12,13-dihydro-12-(2-(4-morpholine)ethyl)-5H-Indolo[2,3-a]pyrrolo[3,4-c]carbazole-5,7(6H)-dione]				0.2 nM	138 nM	IC50 (PIM1 [6]): 1.6 nM
O=C1NC(=O)c2c1c1c3ccccc3[nH]c1c1[nH]c3ccccc3c21 [Arcyriaflavin A, 12,13-dihydro-5H-indolo[2,3-a]pyrrolo[3,4-c]carbazole-5,7(6H)-dione, reference compound]	2 nM and 1.9 nM	19 nM	0.021 µM	0.3 nM	21 nM	IC50 (PIM1 [6]): 2.2 nM
CN(C)C[C@@H]1CCn2cc(c3ccccc32)C2=C(C(=O)NC2=O)c2cn(c3ccccc23)CCO1 [Ruboxistaurin, ruboxistaurin, reference compound]				10 nM	7650 nM	
O=C1NC(=O)c2c1c1c3cc(F)ccc3[nH]c1c1[nH]c3ccc(F)cc3c21 [Compound 129, 3,9-difluoro-arcyriaflavin A]	27 nM	77 nM				Kd (PIM1 [3]; text value printed in μM, read-out: Kd for PIM1): 2.5 µM
O=C1NC(=O)c2c1c1c([nH]c3cccc(F)c31)c1[nH]c3cccc(F)c3c21 [Compound 128]	24 nM	260 nM	0.28 µM			
O=C1NC(=O)c2c1c1c3ccc(O)cc3[nH]c1c1[nH]c3cc(O)ccc3c21 [Compound 122]	3 nM	9 nM	0.011 µM	0.03 nM	5.4 nM	IC50 (PIM1 [6]): 0.5 nM; IC50 (DU145): 2330 nM; IC50 (HEK-293): 2700 nM; IC50 (THLE-3): 4620 nM; IC50 (SNU-16): 700 nM; IC50 (SW480): 2890 nM; IC50 (HepG2): 970 nM; IC50 (MIA PaCa-2): 4810 nM; IC50 PANC-1 (PANC-1): no inhibition
N#Cc1ccc2c(c1)[nH]c1c3[nH]c4cc(C#N)ccc4c3c3c(c21)C(=O)NC3=O [Compound 146]	> 10000 nM	> 10000 nM	> 10 µM			
O=C1NC(=O)c2c1c1c3cccc(F)c3[nH]c1c1[nH]c3c(F)cccc3c21 [Compound 131]	130 nM	2600 nM	6.3 µM			
COC(=O)[C@@]1(O)C[C@H]2O[C@]1(C)n1c3ccccc3c3c4c(c5c6ccccc6n2c5c31)C(=O)NC4 [Compound K252a, K252a, reference compound]						Kd (PIM3 [1]; Kd PIM3, competition binding): ~10 nM
